This note sets out measurements from ChEMBL document CHEMBL1143085, “Synthesis and in vitro antimycobacterial activity of B-ring modified diaryl ether InhA inhibitors” (Bioorg Med Chem Lett, 2008).

In brackets after ≈: the same amount, converted by molar mass. A value given as a limit tells only on which side of the number the result lay.

The subject of data set [1] is Mycobacterium tuberculosis. Put plainly: Antimicrobial activity against Mycobacterium tuberculosis H37RV. It counts as functional.
Data set [2] can be described thus: Partition coefficient, log P of the compound. Format: physicochemical. The note with it: octanol/water.
Data set [3] has as its target T1, Enoyl-[acyl-carrier-protein] reductase [NADH] (Mycobacterium tuberculosis, UniProt P9WGR1).
T1 sequence (P9WGR1 whole entry): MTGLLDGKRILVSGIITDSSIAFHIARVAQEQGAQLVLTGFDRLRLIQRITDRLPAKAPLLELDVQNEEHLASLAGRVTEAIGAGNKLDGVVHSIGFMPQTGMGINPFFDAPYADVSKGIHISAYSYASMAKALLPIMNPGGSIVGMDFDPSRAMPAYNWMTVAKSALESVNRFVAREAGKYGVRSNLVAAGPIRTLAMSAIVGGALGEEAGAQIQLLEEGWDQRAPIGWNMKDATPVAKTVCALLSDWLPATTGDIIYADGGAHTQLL
Description: Inhibition of Mycobacterium tuberculosis H37RV InhA

For data set [4], the target named is T1, Enoyl-[acyl-carrier-protein] reductase [NADH]. Briefly: Inhibition of 100 nM Mycobacterium tuberculosis H37RV InhA.

In turn, `CCCCCCc1ccc(Oc2ncccn2)c(O)c1` returned an MIC90 in data set [1] of 100 µg/mL (≈ 367 µM). The logP in data set [2] (read-out: LogP) amounted to 4.46. Besides, the Ki in data set [3] is 1 nM.
`CCCCCCc1ccc(Oc2cnccn2)c(O)c1` displayed an MIC90 in data set [1] of 6.25 µg/mL (≈ 22.9 µM). The logP in data set [2] (read-out: LogP) worked out at 4.76. In data set [3], this compound had a Ki of 1 nM.
Compound `CCCCCCc1ccc(Oc2nc(OC)cc(OC)n2)c(O)c1` came in with an MIC90 in data set [1] of 100 µg/mL (≈ 301 µM). Moreover, the affinity in data set [3] corresponds to a Ki of 1 nM.
Consider `CCCCCCc1ccc(Oc2ccncc2)c(O)c1`, for which the MIC90 in data set [1] was 3.13 µg/mL (≈ 11.5 µM). Also, the logP in data set [2] (read-out: LogP) came out at 4.93. The compound also registered a Ki in data set [3] of 1 nM.
Turning to `CCCCCCc1ccc(Oc2ccc(NC(=O)c3ccno3)cc2)c(O)c1`, in data set [1], the MIC90 is more than 200 µg/mL. Further, the logP in data set [2] (read-out: LogP) was determined as 5.15. Moreover, affinity in data set [3] was put at a Ki of 1 nM.
On to `CCCCCCc1ccc(Oc2ccc(CN3CCN(C)CC3)cc2)c(O)c1`, for which, in data set [1], the MIC90 was more than 100 µg/mL. In addition, in data set [3], the affinity corresponds to a Ki of 1 nM.
Taken in the same sequence, the figures for `CCCCCCc1ccc(Oc2ccc(NC(=O)C(=O)O)cc2)c(O)c1` were more than 200 µg/mL and 1 nM.
`CCCCCCc1ccc(Oc2ccc(NC(C)=O)cc2)c(O)c1` had an MIC90 in data set [1] of 50 µg/mL (≈ 153 µM). In addition, the affinity in data set [3], expressed as Ki, was 1 nM.
`CCCCCCc1ccc(Oc2cccc(NC(=O)C(=O)O)c2)c(O)c1` registered an IC50 in data set [4] of 580 nM. Also, in data set [1], the MIC90 was 130 µg/mL (≈ 364 µM). Further, the inhibitory constant (Ki) in data set [3] was determined as 1 nM.
In data set [1], `CCCCCCc1ccc(Oc2ccc(N)cc2)c(O)c1` yielded an MIC90 of 12.5 µg/mL (≈ 43.8 µM). For the same compound, the log partition coefficient (logP) in data set [2] (read-out: LogP) is 4.93.
`CCCCCCc1ccc(Oc2ccccc2NC(C)=O)c(O)c1` showed an IC50 in data set [4] of 1550 nM. In data set [1], the MIC90 was more than 200 µg/mL. For the same compound, the logP in data set [2] (read-out: LogP) was 5.28. For the same compound, affinity in data set [3] was put at a Ki of 1 nM.
The compound `CCCCCCc1ccc(Oc2ccccc2[N+](=O)[O-])c(O)c1` registered an MIC90 in data set [1] of 12.5 µg/mL (≈ 39.6 µM). The same compound yielded a logP in data set [2] of 5.5. This compound came in with a Ki in data set [3] of 1 nM.
`CCCCCCc1ccc(Oc2cccc([N+](=O)[O-])c2)c(O)c1` came in with an MIC90 in data set [1] of 12.5 µg/mL (≈ 39.6 µM).
In turn, `CCCCCCc1ccc(Oc2ccc([N+](=O)[O-])cc2)c(O)c1` gave a half-maximal inhibitory concentration (IC50) in data set [4] of 90 nM. This compound also had an MIC90 in data set [1] of 25 µg/mL (≈ 79.3 µM). For the same compound, the logP in data set [2] is 5.64. Also, in data set [3], the inhibitory constant (Ki) amounted to 1 nM.
In data set [1], `CCCCCCc1ccc(Oc2ccccc2N)c(O)c1` showed an MIC90 of 3.13 µg/mL (≈ 11 µM). Besides, the logP in data set [2] (read-out: LogP) turned out to be 5.27.
With `CCCCCCc1ccc(Oc2ccccn2)c(O)c1`, in data set [4], the concentration for half-maximal inhibition (IC50) was 11500 nM. The logP in data set [2] (read-out: LogP) was found to be 5.06. Moreover, the inhibitory constant (Ki) in data set [3] was determined as 1 nM.
In the case of `CCCCCCc1ccc(Oc2ccccc2)c(O)c1`, the MIC90 in data set [1] was 2.1 µg/mL (≈ 7.77 µM). Further, the logP in data set [2] (read-out: LogP) came to 5.76. This compound gave a Ki in data set [3] of 1 nM.
In data set [4], `CCCCCCc1ccc(Oc2cccc(NC(C)=O)c2)c(O)c1` gave an IC50 of 5600 nM. The MIC90 in data set [1] stood at 100 µg/mL (≈ 305 µM). The compound further displayed a Ki in data set [3] of 1 nM.
Compound `CCCCCCc1ccc(Oc2cccc(N)c2)c(O)c1` came in with an MIC90 in data set [1] of 100 µg/mL (≈ 350 µM). Further, in data set [3], the affinity corresponds to a Ki of 1 nM.
Compound `CCCCCCc1ccc(Oc2cccc(NC(=O)c3ccno3)c2)c(O)c1` came in with a half-inhibitory concentration (IC50) in data set [4] of 1200 nM. The compound also gave an MIC90 in data set [1] of more than 200 µg/mL. The logP in data set [2] (read-out: LogP) was determined as 5.22. Besides, the affinity in data set [3] corresponds to a Ki of 1 nM.
`CCCCCCc1ccc(Oc2cccnc2)c(O)c1`: the MIC90 in data set [1] amounted to 3.13 µg/mL (≈ 11.5 µM). Affinity in data set [3] was put at a Ki of 1 nM.
`CCCCCCc1ccc(Oc2ccccc2NC(=O)C(=O)O)c(O)c1`: half-maximal inhibition in data set [4] (IC50) was put at 2360 nM. Besides, in data set [1], the MIC90 turned out to be 100 µg/mL (≈ 280 µM). For the same compound, the inhibition constant (Ki) in data set [3] was determined as 1 nM.
With `CCCCCCc1ccc(Oc2ccccc2CN2CCN(C)CC2)c(O)c1`, the affinity in data set [3] corresponds to a Ki of 1 nM. This lies in the single-digit nanomolar range.
Turning to `CCCCCCc1ccc(Oc2ccccc2NC(=O)c2ccno2)c(O)c1`, the MIC90 in data set [1] is more than 200 µg/mL. In data set [2] (read-out: LogP), the lipophilicity (logP) is 5.76. The same compound displayed a Ki in data set [3] of 1 nM.
Compound `CCCCCCc1ccc(Oc2ncccn2)c(OC)c1` returned an MIC90 in data set [1] of 75 µg/mL (≈ 262 µM). Also, affinity in data set [3] was put at a Ki of 1 nM.

For orientation: MIC90 means an inhibitory concentration at the 90% level, which refers to growth in some studies and to a panel of isolates in others. A word on the logP: it is a log measure of how a compound divides between an organic and an aqueous phase. Usually Ki stands for a dissociation constant, usually derived from enzyme kinetics or from competition with a known ligand. High values mean lower affinity, low ones higher affinity. Broadly, the IC50 is the concentration that inhibits the measured activity by half.
